Reference: BigSolDB 2.1

COC(=O)c1cccc(C(=O)OC)n1
solubility (mole fraction)
Settings | 278.15 K | 283.15 K | 288.15 K | 293.15 K | 298.15 K | 303.15 K | 308.15 K | 313.15 K | 318.15 K | 323.15 K
in DMSO | – | – | – | 0.0174 | 0.0205 | 0.0271 | 0.0323 | 0.0435 | 0.0503 | 0.0658
in THF | 0.00553 | 0.00773 | 0.00891 | 0.0115 | 0.0138 | 0.0166 | 0.0219 | 0.0293 | 0.0373 | 0.046
in ethanol | 0.00042 | 0.00068 | 0.00103 | 0.00147 | 0.00215 | 0.00323 | 0.00436 | 0.00576 | 0.00757 | 0.0101
in ethyl acetate | 0.00335 | 0.00364 | 0.00549 | 0.0082 | 0.0105 | 0.0149 | 0.019 | 0.0261 | 0.0326 | –
in isopentyl acetate | 0.00146 | 0.00192 | 0.00252 | 0.00334 | 0.00438 | 0.00576 | 0.00729 | 0.00944 | 0.0158 | 0.0216
in isopropanol | 0.00032 | 0.00049 | 0.00071 | 0.00116 | 0.0017 | 0.0022 | 0.0032 | 0.00414 | 0.00579 | 0.00785
in isopropyl acetate | 0.00191 | 0.00235 | 0.00343 | 0.00516 | 0.00721 | 0.0094 | 0.0117 | 0.0161 | 0.0202 | 0.0262
in methanol | 0.00057 | 0.00092 | 0.00142 | 0.00199 | 0.00283 | 0.00425 | 0.0055 | 0.0075 | 0.00974 | 0.012
in methyl acetate | 0.00524 | 0.00759 | 0.0118 | 0.0145 | 0.0201 | 0.0255 | 0.0312 | 0.041 | 0.0489 | 0.0635
in n-butyl acetate | 0.0015 | 0.00203 | 0.00286 | 0.00462 | 0.00671 | 0.00883 | 0.0113 | 0.0158 | 0.0201 | 0.026
in n-pentyl acetate | – | 0.0027 | 0.0038 | 0.00459 | 0.00625 | 0.00851 | 0.0111 | 0.015 | 0.0189 | 0.0243
in n-propanol | 0.00032 | 0.0005 | 0.00078 | 0.0011 | 0.00171 | 0.00228 | 0.00357 | 0.00476 | 0.00621 | 0.00839
